Source: patent US20240382451A1, “ORGANONITRO AND SULFOXYALKYL ORGANONITRO COMPOUNDS FOR USE IN TREATING MEDICAL DISORDERS” (EpicentRx, Inc., priority 2021, published 2024)

Experiments:
[1] = test system: bone marrow derived macrophages (BMDMs); test: LPS-primed bone marrow derived macrophages: cytokine expression, IL-1β release, cytosolic Ca2+; assay type: cell-based; conditions: BMDMs primed with LPS 50 ng/mL for 30 minutes, then 0.5 μM RRx-001 for 4 hours
Experimental: Bone marrow derived macrophages (BMDMs) were primed with LPS (50 ng/mL) for 30 minutes before being treated with RRx-001 (0.5 μM) for 4 hours. FIG. 4A depicts the expression levels of IFN-γ, IL-12, TNF-α, and IL-1β from the three groups: (i) control (not primed with LPS), (ii) LPS+vehicle (primed with LPS but not treated with RRx-001), (iii) and LPS+RRx-001 (primed with LPS and treated with RRx-001). FIG. 4B depicts IL-1β release over time from the three groups. FIG. 4C depicts cytosolic Ca^2+ levels over time for the three groups.

[2] = test system: bone marrow derived macrophages (BMDMs); test: DSS-primed bone marrow derived macrophages: IL-1β release; assay type: cell-based; conditions: BMDMs primed with DSS, 0.5 μM or 1.0 μM RRx-001
Experimental: FIG. 5 depicts IL-1β release from the four groups of bone marrow derived macrophages (BMDMs): (i) control (not primed with DSS). (ii) DSS+vehicle (primed with DS but not treated with RRx-001), (iii) DSS+RRx-001 (0.5 μM; primed with DSS and treated with 0.5 μM RRx-001), and (iv) DSS+RRx-001 (1.0 μM; primed with DSS and treated with 1.0 μM RRx-001).

C57BL/6 mice = test: Dextran sulfate sodium (DSS) induced colitis in mice; assay type: in vivo, mouse; conditions: 2% or 4% DSS for 9 days, 5 or 10 mg/kg
Source text: Colitis was induced in C57BL/6 mice with 2% or 4% dextran sulfate sodium (DSS; 40 kDa) dissolved in drinking water given ad libitum for 9 days. Control mice were given filtered water. FIG. 6A depicts changes in mice body weight over a 9-day period for each of the three groups: (i) control (filtered water), (ii) 2% DSS, and (iii) 4% DSS. FIG. 6B depicts colon length of mice in each group after the 9-day period.
FIGS. 7A and 7B depict changes in mice body weight over a 9-day period for each of the six groups: (i) 2% DSS+vehicle, (ii) 2% DSS+RRx-001 (5 mg/kg), and (iii) 2% DSS+RRx-001 (10 mg/kg) in FIG. 7A; and (iv) 4% DSS+vehicle, (v) 4% DSS+RRx-001 (5 mg/kg), and (vi) 4% DSS+RRx-001 (10 mg/kg) in FIG. 7B. While the 2% or 4% DSS was given ad libitum for 9 days as described above, vehicle, 5 mg/kg RRx-001, or 10 mg/kg RRx-001 was given as intravascular injections of pre-mixed blood formulations every other day during the 9-day period. […] FIGS. 7C and 7D depict colon length of mice in each of the six groups. […] FIGS. 7E and 7F depict serum IL-1β levels in mice in each of the six groups. […] FIGS. 7G and 7H depict colon homogenate IL-1β levels in mice in each of the six groups. FIGS. 7I and 7J depict colon homogenate IL-1β levels relative to the average IL-1β level of the control (i.e., DSS+vehicle) in mice in each of the six groups.
FIGS. 8A and 8B depict the changes in mice body weight over the 9-day period for each of the six groups: (i) 2% DSS+vehicle. (ii) 2% DSS+RRx-001 (5 mg/kg), and (iii) 2% DSS+RRx-001 (10 mg/kg) in FIG. 8A; and (iv) 4% DSS+vehicle, (v) 4% DSS+RRx-001 (5 mg/kg), and (vi) 4% DSS+RRx-001 (10 mg/kg) in FIG. 8B. While the 2% or 4% DSS was given ad libitum for 9 days as described above, vehicle, 5 mg/kg RRx-001, or 10 mg/kg RRx-001 was given as intraperitoneal injections every other day during the 9-day period. […] FIGS. 8C and 8D depict colon length of mice in each of the six groups. […] FIGS. 8E and 8F depict serum IL-1β levels in mice in each of the six groups. […] FIGS. 8G and 8H depict colon homogenate IL-1β levels in mice in each of the six groups.

3×Tg-AD mice [3] = test: Oxidative stress markers and amyloid plaque density in aged 3×Tg-AD mice; assay type: in vivo, mouse; conditions: 2 mg/kg intraperitoneal once weekly for 3 months
Experimental: (§1) The neuroprotective effects of RRx-001 administration on Alzheimer's Disease (AD), which has been linked to aberrant NLR family pyrin domain containing 3 (NLRP3) activation, were evaluated via intraperitoneal injection once weekly for 3 months on aged (18-21 months old) homozygous triple transgenic AD mouse model (3×Tg-AD, Jackson Labs). 3×Tg mice received either 2 mg/kg RRx-001 (n=3) or vehicle (n=3), and were evaluated against control non-transgenic mice (NonTg, Jackson Labs) that were untreated (n=3).

3×Tg-AD mice [4] = test: Morris water maze test in aged triple transgenic Alzheimer's disease mouse model; assay type: in vivo; conditions: 2 mg/kg intraperitoneal once weekly for 3 months
Experimental: as §1
Five days after the last treatment, the mice were tested using a Morris water maze test. The next week, the mice were exposed to an elevated maze test. The latency to reach the exact hidden platform location on the Morris water maze test (FIG. 1A) and the number of crossings of the platform target quadrant (FIG. 1B) were recorded.

[5] = intraperitoneal injections every other day
[6] = intravascular injections of pre-mixed blood formulations every other day

With O=C(CBr)N1CC([N+](=O)[O-])([N+](=O)[O-])C1 [RRx-001, 2-bromo-1-(3,3-dinitroazetidin-1-yl)ethanone] as the compound, how does the “calcium accumulation in activated macrophages (cytosolic Ca2+ levels)” value [1] read?
Its value is “prevents calcium accumulation”.

What about the “inflammation-driven expression of certain cytokines such as IL-1β” value [1] of the same compound?
The value was “significantly reduces”.

What about the “inflammatory effect of DSS (IL-1β release)” value [2] of the same compound?
Its value is “significantly reduces”.

What about the “DSS-induced expression of colon homogenate IL-1β” value (C57BL/6 mice; [5]) of the same compound?
The value was “reduces”.

And the “DSS-induced expression of serum IL-1β” value (C57BL/6 mice; [5])?
The value was “reduces”.

What about the “body weight loss due to DSS induced colitis” value (C57BL/6 mice; [5]) of the same compound?
Its value is “significantly mitigates”.

And the “colon length reduction due to DSS induced colitis” value (C57BL/6 mice; [5])?
The value was “mitigates”.

And the “DSS-induced expression of colon homogenate IL-1β” value (C57BL/6 mice; [6])?
The value was “reduces”.

And the “DSS-induced expression of serum IL-1β” value (C57BL/6 mice; [6])?
The value was “reduces”.

What about the “body weight loss due to DSS induced colitis” value (C57BL/6 mice; [6]) of the same compound?
The value was “significantly mitigates”.

What about the “colon length reduction due to DSS induced colitis” value (C57BL/6 mice; [6]) of the same compound?
Its value is “mitigates”.

And the amyloid plaque density (3×Tg-AD mice [3])?
Its amyloid plaque density is “decrease”.

What about the “lipid peroxidation (thiobarbituric acid-reactive substance (TBAR) levels)” value (3×Tg-AD mice [3]) of the same compound?
Its value is “decrease”.

What about the “reduced glutathione (GSH) compared to glutathione disulfide (GSSG)” value (3×Tg-AD mice [3]) of the same compound?
The value was “significant increase”.

And the “spatial learning tasks (trend in latency across trials)” value (3×Tg-AD mice [4])?
Its value is “improvement”.

And the “latency to locate the platform on the Morris water maze test” value (3×Tg-AD mice [4]; vs vehicle)?
The value was “significantly reduce”.
